Results: US20210308101A1, “METHODS OF TREATING FIBROMYALGIA” (Aptinyx Inc., priority 2019, published 2021)

Columns and labels:
Format in all cases: in vivo, human
[1] = tested on: subjects with fibromyalgia; experiment: QST: digital algometer pressure pain threshold (trapezius, wrist, patella)
Method: Localized pressure pain sensitivity was also measured bilaterally at 3 additional body regions: trapezius, wrist, and patella. Examination of multiple sites across all quadrants of the body permitted analysis of the distribution of pain sensitivity. Sensitivity was measured using a digital algometer with a 1-cm^2 flat rubber probe. […] Measurements were conducted 2 to 3 times (15- to 20-second intervals) at each site.
QST data were analyzed at the University of Michigan CPFRC. Dependent variables were the MAST derived outcomes (Pain50, pressure pain threshold, pain tolerance, and pain ratings at 2 kg/cm2), algometry-derived pressure pain thresholds (mean of three trials) at each anatomical site, average cuff intensity ratings (mean of ratings at all stimulus levels during the ascending or random sequences), and average visual task unpleasantness and brightness intensity ratings (mean of ratings at all stimulus levels). Practice data were not analyzed. Overall pain intensity and unpleasantness NRS scores as well as stimulus response curves for each test were assessed during post hoc analyses. Data points displaying measurement artefacts, including device malfunction or user error, were set to missing. Single subject QST variables were analyzed using paired t-tests and/or nonparametric Wilcoxon signed-rank tests in SPSS or R.

posterior insula Glx = experiment: 1H-MRS Glx levels, posterior insula (pre and post evoked cuff pain); details: for pain-evoked increase in posterior insula Glx at the visit: p>0.60; for posterior insula pain-related Glx/tCr level increases: 11 patients; for posterior insula evoked pain Glx levels compared to the placebo visit: p<0.10, FIG. 15
From the text: As used herein, “^1H-MRS” is Magnetic Resonance Spectroscopy (1H-MRS) or Proton Magnetic Resonance Spectroscopy. Proton magnetic resonance spectroscopy is a noninvasive imaging technique that allows in vivo determination of biochemical parameters within brain tissue. Proton magnetic resonance spectroscopy data were used to collect brain neurotransmitter levels of Glu and combined glutamate+glutamine metabolites (Glx). This method provides metrics amenable to longitudinal studies such as those proposed here. High-resolution anatomical scans can isolate identical brain structures within individuals over time, thus minimizing error that otherwise would occur because of slight differences in voxel location from 1 evaluation to the next. Previous ^1H-MRS studies have utilized this approach to examine changes in the levels of CNS metabolites in test-retest studies of drug effects. This study expanded the investigation to a variety of regions throughout the brain including: • Right anterior insula • Right posterior insula (This region was acquired twice: once prior to and once following evoked cuff pain. All other voxels were acquired once.) • Perigenual/rostral anterior cingulate cortex (midline) • Dorsal/anterior cingulate cortex (midline) • Precuneus (midline) • Medial prefrontal cortex • Thalamus (optional if time permitted)
Proton magnetic resonance spectroscopy data were collected using the same scanners used for fMRI. Voxels of interest were placed in each of the aforementioned brain regions to obtain levels of Glu and Glx.
Raw data from each single-voxel spectroscopy sequence underwent manual post-processing using ^1H-MRS software (LCModel; Stephen Provencher, Oakville, Ontario, Canada). LCModel uses a linear combination of individual spectra obtained from pure molecular species to fit the experimental spectra. Glx values were calculated as an absolute concentration using the water signal for normalization or as a ratio to creatine. Correction for cerebral spinal fluid (CSF) volume, which can dilute ^1H-MRS-derived Glx values, was also performed. For this we used Voxel Based Morphometry, a toolbox that operates within SPM. Metabolite concentrations were excluded if the Cramér-Rao bounds were greater than 20%.
The analysis visit comparisons stated were analyzed using paired t-tests and/or nonparametric Wilcoxon signed-rank tests of Glx levels at each voxel independently in SPSS. The primary analyses were comparisons between posterior insula and anterior cingulate cortex Glx levels following placebo and NYX-2925 (either 20 or 200 mg) administration.

[2] = tested on: visual stimulus-evoked brain activation; experiment: fMRI of visual stimulation, BOLD activations; details: either dose relative to baseline or placebo
From the text: As used herein, “Functional Magnetic Resonance Imaging of Evoked Pain and Visual Stimulation” refers to the following procedure. During evoked pain and visual stimulation fMRI paradigms, participants were lying in the scanner as they received either pressure stimulation to their calf muscle or they experienced an unpleasant visual stimulus. For both pain and visual stimulation, whole-brain Blood Oxygenation Level Dependent (BOLD) functional images were acquired.
Neural mechanisms of this multimodal hypersensitivity were assessed using fMRI. Whole brain BOLD functional images were acquired. The visual stimulation task was 3 minutes in duration and consisted of 2 different visual stimuli presented in a block design. The control stimulus was a fixed crosshair centered in the middle of a solid color background, whereas the experimental stimulus was a flashing annulus checkerboard (8 Hz frequency) (see below figure of example of visual stimuli). […]
Several analyses were conducted with the fMRI resting state and task data. Results were assessed by: 1) a primary analysis, where a finding was deemed significant with a corrected cluster level p<0.05, derived from an uncorrected voxel-wise p<0.001, and 2) an exploratory analysis, where a finding was deemed significant with an uncorrected voxel-wise p<0.005 and having a cluster greater than or equal to 80 contiguous voxels. […]

## CC(C)C(=O)N1CCC[C@]12CN([C@H](C(N)=O)[C@@H](C)O)C2=O [NYX-2925, (2S, 3R)-3-hydroxy-2-((R)-5-isobutyryl-1-oxo-2,5-diazaspiro[3.4]octan-2-yl)butanamide]
[1]; 200 mg, placebo 1.77±1.53, p=0.047
  right trapezius pressure pain threshold: 1.58±1.37 kgf/cm^2
[1]; NYX-2925 20 mg, baseline 1.60±1.11, p=0.042
  left wrist pressure pain threshold: 1.30±1.08 kgf/cm^2
[1]; NYX-2925 20 mg, baseline 1.64±1.30, p=0.021
  right wrist pressure pain threshold: 1.28±1.10 kgf/cm^2
[1]; NYX-2925 200 mg, baseline 1.64±1.30, p=0.042
  right wrist pressure pain threshold: 1.32±1.15 kgf/cm^2
Posterior insula Glx; FIG. 5: 20 mg vs placebo, 19 patients, p=0.032
  resting posterior insula Glx levels following evoked pain: significantly reduce resting posterior insula Glx levels
Posterior insula Glx; NYX-2925 20 mg visit
  pain-evoked increase in posterior insula Glx at the visit: not significant
Posterior insula Glx; NYX-2925 20 mg vs placebo, FIG. 3A, p<0.05
  posterior insula pain-related Glx/tCr level increases: reduction in pain related Glx/tCr level increases
Posterior insula Glx; NYX-2925 20 mg
  posterior insula evoked pain Glx levels compared to the placebo visit: trend for NYX-2925 20 mg and 200 mg to reduce evoked pain Glx levels
Posterior insula Glx; NYX-2925 200 mg compared to placebo, p<0.05
  posterior insula Glx levels post-pain (ratios to creatine only): significant decrease in Glx levels
Posterior insula Glx; NYX-2925 200 mg visit
  pain-evoked increase in posterior insula Glx at the visit: not significant
Posterior insula Glx; NYX-2925 200 mg vs placebo, FIG. 3B, p<0.05
  posterior insula pain-related Glx/tCr level increases: reduction in pain related Glx/tCr level increases
Posterior insula Glx; NYX-2925 200 mg
  posterior insula evoked pain Glx levels compared to the placebo visit: trend for NYX-2925 20 mg and 200 mg to reduce evoked pain Glx levels
[2]
  BOLD activation, visual task: No significant or marginal changes in BOLD activation
